We go through twelve compounds from ChEMBL document CHEMBL1201862, “PubChem BioAssay data set” (2004).

Assay [1] in a line: cells.
The test system of assay [2] is BJ. The assay is described as follows: cytotoxicity toward BJ-TERT fibroblasts, dose response, cell-based, RAS-independent, luminescence (AID 1933). The format is functional. The following applies: Homo sapiens.
For assay [3], the system named is BJ. Kind of assay: cells. The format is functional, cell-based. The note with it: Homo sapiens.
In assay [4] the test system is BJ. Kind of assay: cytotoxicity toward BJ-TERT-LT-ST fibroblasts, dose response, cell-based, RAS-independent, luminescence (AID 1935).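 Further: BJ fibroblasts immortalized with TERT plus LT and ST oncogenes.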 The format is functional. The following applies: Homo sapiens.
Assay [5] in a line: cytotoxicity toward DRD oncogenic fibroblasts, dose response, cell-based, non-viral oncogenic, luminescence (AID 1934). Format: functional. The following applies: Homo sapiens.
The nature of assay [6]: Shn3 3'UTR reporter inhibitors, dose response, cell-based, Clone20 osteoblasts, firefly luciferase, cherry-picked (AID 624132).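 Further: firefly luciferase luminescence from reporter carrying the Shn3 3'UTR in osteoblasts.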 The format is functional.
The nature of assay [7]: HepG2 cell cytotoxicity, dose response, cytotoxicity control for Shn3 inhibitor project, CellTiter-Glo, cherry-picked (AID 624134). Format: functional, cell-based. On the technique in general: In ATP-based viability assays light output follows the ATP content of the culture.
Assay [8] is described as follows: control 3'UTR Renilla luciferase suppression, dose response, counter-screen for Shn3 inhibitor project, cell-based, Clone20-Shn3RL, cherry-picked (AID 624133). The format is functional. For orientation: A counterscreen serves to expose hits that act by an unwanted route or on another target.
Assay [9] can be described thus: ADAM10 inhibitors, peptide cleavage, dose response, biochemical, QFRET (AID 743254).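 Further: ADAM10 enzyme with the DM2 quenched FRET peptide as substrate; EDANS fluorescence gain as the protease cuts the substrate; inhibitor potency against ADAM10 proteolytic activity.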
Assay [10] deals with Disintegrin and metalloproteinase domain-containing protein 17 (Homo sapiens, UniProt P78536). The assay is described as follows: ADAM17 protease inhibitors, dose response, counter-screen for ADAM10 exosite inhibitor project, biochemical, quenched FRET substrate (AID 743253).
Chain of Disintegrin and metalloproteinase domain-containing protein 17 (P78536 whole entry, the tested form may be a part): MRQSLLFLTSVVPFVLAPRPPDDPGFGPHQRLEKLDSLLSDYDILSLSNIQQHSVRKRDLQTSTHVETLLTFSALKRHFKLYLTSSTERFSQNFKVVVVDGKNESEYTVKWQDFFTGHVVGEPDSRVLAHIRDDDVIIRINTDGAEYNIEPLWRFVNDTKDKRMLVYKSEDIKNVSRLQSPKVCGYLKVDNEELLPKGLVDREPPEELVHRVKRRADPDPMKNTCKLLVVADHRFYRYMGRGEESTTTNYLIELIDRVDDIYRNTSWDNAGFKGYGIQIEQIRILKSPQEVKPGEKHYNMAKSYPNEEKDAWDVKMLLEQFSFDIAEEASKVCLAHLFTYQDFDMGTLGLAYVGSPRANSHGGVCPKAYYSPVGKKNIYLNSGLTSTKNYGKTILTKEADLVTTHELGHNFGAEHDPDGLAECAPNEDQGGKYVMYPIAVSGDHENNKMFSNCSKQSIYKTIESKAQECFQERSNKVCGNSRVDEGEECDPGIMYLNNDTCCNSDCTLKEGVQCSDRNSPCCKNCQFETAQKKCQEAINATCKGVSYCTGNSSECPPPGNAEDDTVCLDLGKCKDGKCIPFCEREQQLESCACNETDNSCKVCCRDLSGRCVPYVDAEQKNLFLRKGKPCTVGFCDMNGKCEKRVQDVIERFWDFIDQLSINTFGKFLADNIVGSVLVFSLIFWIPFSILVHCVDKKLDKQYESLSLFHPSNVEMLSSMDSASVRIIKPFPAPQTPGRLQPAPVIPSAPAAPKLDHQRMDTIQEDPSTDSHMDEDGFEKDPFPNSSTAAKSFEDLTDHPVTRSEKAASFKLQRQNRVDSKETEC
In assay [11] the target is Nonstructural protein 1 (Influenza A virus, UniProt Q194T2). Format: functional, Influenza A virus (A/California/07/2009(H1N1)).
Chain of Nonstructural protein 1 (Q194T2 whole entry, the tested form may be a part): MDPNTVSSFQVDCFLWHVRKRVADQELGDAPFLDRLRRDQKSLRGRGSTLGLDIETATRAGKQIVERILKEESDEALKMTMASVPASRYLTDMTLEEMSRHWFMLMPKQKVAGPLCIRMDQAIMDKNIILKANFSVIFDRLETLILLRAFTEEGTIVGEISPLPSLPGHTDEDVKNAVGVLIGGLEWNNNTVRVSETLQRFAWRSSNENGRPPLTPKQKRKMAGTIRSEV
The target in assay [12] is Photoreceptor-specific nuclear receptor (Homo sapiens, UniProt Q9Y5X4). Format: functional, cell-based.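 Further: CHO-S cells with Gal4-NCOR and VP16-NR2E3 two-hybrid luciferase reporter.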
Chain of Photoreceptor-specific nuclear receptor (Q9Y5X4 whole entry, the tested form may be a part): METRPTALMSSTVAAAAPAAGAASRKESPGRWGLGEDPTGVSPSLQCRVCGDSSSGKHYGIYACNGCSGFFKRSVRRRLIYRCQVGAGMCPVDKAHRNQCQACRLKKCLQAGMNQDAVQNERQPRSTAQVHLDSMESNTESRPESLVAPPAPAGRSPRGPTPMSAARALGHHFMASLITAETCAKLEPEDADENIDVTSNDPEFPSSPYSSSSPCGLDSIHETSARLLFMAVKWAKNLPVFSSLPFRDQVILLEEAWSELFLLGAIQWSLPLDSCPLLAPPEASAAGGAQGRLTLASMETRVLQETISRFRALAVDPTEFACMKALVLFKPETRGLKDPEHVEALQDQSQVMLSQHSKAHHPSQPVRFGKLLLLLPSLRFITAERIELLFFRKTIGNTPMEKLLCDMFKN
A short description of assay [13]: HeLa cell cytotoxicity, dose response, cytotoxicity control for MgcRacGAP inhibitor project (AID 624300). The format is functional.
The target in assay [14] is T1, Rac GTPase-activating protein 1 (Homo sapiens, UniProt Q9H0H5).
T1 sequence (Q9H0H5 whole entry): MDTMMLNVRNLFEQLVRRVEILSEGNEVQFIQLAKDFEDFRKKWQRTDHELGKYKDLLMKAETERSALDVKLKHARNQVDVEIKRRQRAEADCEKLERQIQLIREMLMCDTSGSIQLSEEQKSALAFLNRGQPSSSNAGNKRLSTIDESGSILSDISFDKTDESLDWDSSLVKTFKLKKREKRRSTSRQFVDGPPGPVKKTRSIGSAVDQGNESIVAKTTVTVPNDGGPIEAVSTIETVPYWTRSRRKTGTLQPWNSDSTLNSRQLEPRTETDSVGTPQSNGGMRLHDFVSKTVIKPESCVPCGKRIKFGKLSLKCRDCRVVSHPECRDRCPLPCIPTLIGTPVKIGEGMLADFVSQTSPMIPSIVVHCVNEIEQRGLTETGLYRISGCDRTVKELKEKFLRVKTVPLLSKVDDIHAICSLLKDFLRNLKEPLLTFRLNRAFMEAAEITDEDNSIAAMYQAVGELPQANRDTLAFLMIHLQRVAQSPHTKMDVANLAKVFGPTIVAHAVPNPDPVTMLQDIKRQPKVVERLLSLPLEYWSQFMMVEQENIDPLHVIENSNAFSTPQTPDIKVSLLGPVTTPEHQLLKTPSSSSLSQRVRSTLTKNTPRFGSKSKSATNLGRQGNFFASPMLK
The assay is described as follows: MgcRacGAP GTPase-activating activity inhibitors, confirmation, biochemical, ADP Hunter fluorescence, primary and confirmatory (AID 624330). The format is functional.

The target of assay [15] is T2, DNA repair protein RAD52 homolog (Homo sapiens, UniProt P43351).
T2 sequence (P43351 whole entry): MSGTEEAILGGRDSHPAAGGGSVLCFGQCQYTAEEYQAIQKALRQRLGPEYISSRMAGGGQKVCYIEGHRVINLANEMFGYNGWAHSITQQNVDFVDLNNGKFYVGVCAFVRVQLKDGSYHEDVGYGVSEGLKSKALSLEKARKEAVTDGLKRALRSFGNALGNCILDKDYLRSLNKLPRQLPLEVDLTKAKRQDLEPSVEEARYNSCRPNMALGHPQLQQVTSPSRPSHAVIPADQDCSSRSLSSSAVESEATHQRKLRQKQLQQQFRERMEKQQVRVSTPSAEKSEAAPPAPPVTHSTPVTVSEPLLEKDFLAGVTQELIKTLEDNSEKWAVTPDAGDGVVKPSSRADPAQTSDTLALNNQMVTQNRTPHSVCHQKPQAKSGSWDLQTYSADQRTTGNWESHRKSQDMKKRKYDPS
The format is functional, biochemical.

Assay [16] is described as follows: human group III sPLA2 inhibitors, dose response, biochemical, QFRET, IC50 (AID 743457).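 Further: green fluorescence rise as the enzyme cleaves BODIPY PC-A2 in liposomes; potency for inhibition of the enzyme.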
A short description of assay [17]: cells. The note with it: A549.
The target in assay [18] is Paired box protein Pax-8 (Homo sapiens, UniProt Q06710). The assay is described as follows: inhibitors of PAX8-driven TPO luciferase reporter, dose response, RMG-I cells, cherry-pick (AID 687027).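 Further: luciferase reporter driven by Pax8 target thyroperoxidase promoter measured by SteadyGlo luminescence.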 Format: functional, cell-based.
Chain of Paired box protein Pax-8 (Q06710 whole entry): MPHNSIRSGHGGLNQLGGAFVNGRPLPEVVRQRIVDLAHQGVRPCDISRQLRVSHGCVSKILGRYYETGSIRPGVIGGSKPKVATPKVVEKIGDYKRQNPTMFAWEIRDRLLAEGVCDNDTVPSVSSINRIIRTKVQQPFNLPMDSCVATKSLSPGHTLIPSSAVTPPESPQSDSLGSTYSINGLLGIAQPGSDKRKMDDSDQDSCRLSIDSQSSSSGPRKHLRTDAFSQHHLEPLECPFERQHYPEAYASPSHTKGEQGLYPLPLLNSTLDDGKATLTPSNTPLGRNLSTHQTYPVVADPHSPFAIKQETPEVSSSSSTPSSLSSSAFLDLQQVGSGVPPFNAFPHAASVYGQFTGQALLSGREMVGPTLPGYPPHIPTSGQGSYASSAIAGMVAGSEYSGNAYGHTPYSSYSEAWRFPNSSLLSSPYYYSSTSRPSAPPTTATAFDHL
The nature of assay [19]: A2780 ovarian cancer cell cytotoxicity, dose response, cytotoxicity control, plate reader, dry powder samples (AID 743046). The format is functional, cell-based.
Assay [20] in a line: IOSE-T80 ovarian epithelial cell cytotoxicity, dose response, cytotoxicity control for PAX8 inhibitor project, plate reader, dry powder samples (AID 743045). Format: functional, cell-based.
Assay [21] is described as follows: NIH:OVCAR-3 ovarian cancer cell cytotoxicity, dose response, PAX8 inhibitor project, plate reader, dry powder samples (AID 743044). The format is functional, cell-based.
Assay [22] can be described thus: non-specific cell cytotoxicity, dose response, cytotoxicity control for PAX8 inhibitor project, plate reader, dry powder samples (AID 743021). The format is functional, cell-based.
Assay [23] in a line: cytotoxicity in OVCAR8 ovarian cancer cells, dose response, PAX8 project, cell-based, plate reader, dry powder samples (AID 743197). The format is functional. The note with it: OVCAR-8.
Assay [24] can be described thus: cytotoxicity in HeLa cells, dose response, cytotoxicity control, cell-based, plate reader, dry powder (AID 651946). The format is functional.
Assay [25] can be described thus: Late stage assay provider results from the probe development effort to identify inhibitors of the Plasmodium falciparum M18 Aspartyl Aminopeptidase (M18AAP): radiolabel-based cell-based dose response assay to identify compounds that inhibit P. falciparum growth in RBCs, Set 2.. Format: functional.
Assay [26] in a line: MITF Orthogonal Assay: SK-MEL-5 CTG Assay Measured in Cell-Based System Using Plate Reader - 2084-02_Inhibitor_Dose_DryPowder_Activity_Set7. The format is functional.
The nature of assay [27]: MITF: Counter assay: A375 proliferation Measured in Cell-Based System Using Plate Reader - 2084-03_Inhibitor_Dose_DryPowder_Activity_Set8. The note with it: A-375. The format is functional.
Assay [28] is described as follows: TRPM1 promoter luciferase reporter signal decrease, dose response, MITF inhibitor project, cell-based, SK-MEL-5, dry powder, set 8 (AID 624430). The format is functional.
Assay [29] can be described thus: IGROV1 ovarian cancer cell cytotoxicity, dose response, PAX8 inhibitor project, plate reader, dry powder samples (AID 743043). The format is functional, cell-based. The note with it: IGROV-1.
A short description of assay [30]: cytotoxicity in COV434 cells, dose response, cytotoxicity control for PAX8 inhibitor project, cell-based, plate reader, dry powder, SA7 (AID 743145). Format: functional.
The nature of assay [31]: cytotoxicity in OV-90 ovarian cancer cells, dose response, PAX8 inhibitor project, cell-based, plate reader, dry powder, SA8 (AID 743149). Format: functional.
The nature of assay [32]: cytotoxicity dependent on PAX8, dose response, cell-based, plate reader, dry powder (AID 743049). The format is functional.
A short description of assay [33]: BHK-21 cell cytotoxicity, cytotoxicity control for flavivirus guanylyltransferase probe project, secondary screen (AID 624078). The format is functional.
Assay [34] concerns the target Protein disulfide-isomerase (Homo sapiens, UniProt P07237). The assay is described as follows: PDI inhibitors, insulin turbidity readout, confirmation, biochemical, dry powder samples, set 2 (AID 652146).

What is called AC50 is the concentration giving half of the maximal activity seen. One may read the EC50 as the concentration giving half of the maximal effect. Broadly, the IC50 is the midpoint of a concentration-inhibition curve. Broadly, the CC50 is the concentration that lowers cell viability or growth by half.

The source made the active and inactive calls.

Chain of Protein disulfide-isomerase (P07237 whole entry): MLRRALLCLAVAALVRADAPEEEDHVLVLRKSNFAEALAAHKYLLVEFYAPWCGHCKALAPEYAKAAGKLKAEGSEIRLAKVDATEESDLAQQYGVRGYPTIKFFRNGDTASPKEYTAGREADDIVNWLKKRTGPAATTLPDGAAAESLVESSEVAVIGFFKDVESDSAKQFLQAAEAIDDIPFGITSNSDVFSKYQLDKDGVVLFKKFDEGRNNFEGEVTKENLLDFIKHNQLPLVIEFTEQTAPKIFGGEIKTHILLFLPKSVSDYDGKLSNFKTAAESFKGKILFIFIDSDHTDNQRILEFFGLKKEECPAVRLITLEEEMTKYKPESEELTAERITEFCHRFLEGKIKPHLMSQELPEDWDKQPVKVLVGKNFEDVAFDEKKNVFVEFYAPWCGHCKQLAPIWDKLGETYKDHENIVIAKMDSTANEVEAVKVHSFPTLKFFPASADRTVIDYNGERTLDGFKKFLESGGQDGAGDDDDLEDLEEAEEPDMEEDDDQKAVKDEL

For `Cc1cccn2c(=O)c(/C=C(\C#N)C(=O)NC3CCS(=O)(=O)C3)c(N3CCC(C(N)=O)CC3)nc12` (stereo unspecified), the AC50 in assay [1] was 4.38 µM (active).

Take `COc1ccc(C)c2sc(N(CCCN(C)C)C(=O)c3ccc(S(=O)(=O)N4CCc5ccccc5C4)cc3)nc12`: the EC50 in assay [2] is 1.48 µM (inconclusive); in assay [3], 5.65 µM (active); in [4], 2.13 µM (inconclusive); in assay [5] it was 4.25 µM (active). The values for the AC50 in assay [6], in [7] and in assay [8] were 4.4 µM (active), 2.98 µM (active) and 5.51 µM (active), respectively. Also, the IC50 in [9] and in assay [10] was > 69.5 µM (inactive) in each case.

Take `CN(C)c1ccc(/C=C/c2cc[n+](C)c3ccccc23)cc1`: the IC50 in assay [11] is 10.6 µM (active); in [12] it was 7.07 µM (active); in [14], 38.5 µM (active); in assay [16] it was 30.1 µM (inactive). In addition, the CC50 in assay [13] was 54.1 µM (active). Besides, the concentration at half-maximal activity (AC50) in [15] is 1.23 µM (active).

For the compound `CC(=O)c1cccc(-c2ccnc3c2CC(C(=O)NCc2ccc(F)c(F)c2)O3)c1` (stereo unspecified), the AC50 in assay [17] is 3.92 µM (active).

Consider `C[C@H]1CCCCO[C@H](CN(C)S(=O)(=O)c2ccc(Cl)cc2)[C@@H](C)CN([C@@H](C)CO)C(=O)c2cc(NS(=O)(=O)c3ccc(F)cc3)ccc2O1`, for which the AC50 was 8.27 µM (active) in assay [18] and 58.4 µM (active) in assay [19].

Consider `Cc1ccc(S(=O)(=O)Nc2ccc3c(c2)C(=O)N([C@H](C)CO)C[C@H](C)[C@H](CN(C)Cc2ccc(C(F)(F)F)cc2)OCCCC[C@H](C)O3)cc1`, for which the AC50 in assay [18] is 9.98 µM (active); in [20], 46.2 µM (active); in assay [21], 19.4 µM (active); in assay [22] it was 41.7 µM (active); in assay [23] it was 24.7 µM (active).

For the compound `N#Cc1cccc(CSc2nnc(-c3ccccc3)o2)c1`, in [24], the AC50 was > 52 µM (inactive).

`Oc1ccc(CCNc2c3c(nc4ccccc24)CCCC3)cc1O`: in [25], the concentration for half-maximal inhibition (IC50) is 3.6 µM (active).

On to `Cc1cccc(NC2=CC(=O)c3ccccc3C2=O)c1`, for which the AC50 in [26] is 0.66 µM (active); in assay [27], > 70 µM (inactive); in assay [28], 18.9 µM (active).

`N#C[C@H]1N[C@H](CO)[C@@H]1c1ccc(C#Cc2ccccc2F)cc1`: the AC50 in [21] is 49.8 µM (active); in [29], 45.2 µM (active); in [30] it was > 70 µM (inactive); in assay [31] it was > 70 µM (inactive); in assay [32], 30.1 µM (active).

`O=S(=O)(Nc1cc(Cl)c(O)c2ccccc12)c1ccc(F)cc1`: the CC50 in assay [33] is 12.5 µM (active).

Turning to `CCOC(=O)C1(CCOc2ccccc2)CCN(Cc2ccc3[nH]c(=O)oc3c2)CC1`, in assay [34], the AC50 is > 30 µM (inactive).
